In this assay the target is human C5a receptor (C5aR) (Homo sapiens (Human), UniProt P21730). In words: Inhibition of C5a-C5aR binding (biotinylated human C5a, U937/C5aR cells, FACS). On the procedure:
U937 cells were originally obtained from the American Type Culture Collection (ATCC) and transfected with human C5a receptor (C5aR). U937/C5aR cells were cultured at 37° C., 5% CO2 in RPMI1640 (Gibco) supplemented with 10% FBS (Gibco) and 350 µg/ml Geneticin (Gibco) and passaged every 3 days to maintain the density range from […] to 2×10^6 cells/ml.
Human C5a biotinylation was performed according to the procedure provided by manufacturer (Thermo Scientific, A39257). 10 mM solution of Sulfo-NHS-LC-Biotin was prepared by adding 180μl ultrapure H2O to the 1 mg vial immediately. 12 μl 10 mM biotin reagent was added to […] human C5a solution, gently pipetted for 3 seconds, and incubated on ice for 2 hours. Amicon ultra-0.5 centrifuge filter device (Millipore, UFC5003BK) was pre-rinsed with Milli-Q H2O, centrifuged at 14000 g for 5 min immediately before use. Up to […] sample (diluted by PBS) was added to the device and capped. The device was spinned at 14000 g for approximately 5 min. 250 μl PBS was added to the filter device, spinned at 14000 g for 5 min, and repeatedly washed 6 times. The filter device was separated from the microcentrifuge tube and placed upside down in a clean microcentrifuge tube, spinned for 2 min at 1000 g to transfer the concentrated sample from the device to the tube.
U937/C5aR cells were collected and washed twice by PBS, cells were suspended in PBS+0.1% BSA buffer at the density of 3×10^6 cells/ml. 100 μl cell suspension was added to a 96 well microplate. 50 μl compound diluted in assay buffer and 50 μl biotinylated ligand human C5a (30 nM) were added to corresponding wells in order and the plate was incubated on ice for 120 min and then centrifuged at 1000 rpm for 3-5 min at 4° C. Supernatant was removed and cells were washed by pre-cold PBS twice. 100 μl FITC conjugated streptavidin was added to cells, incubated on ice for another 30 min, and then centrifuged at 1000 rpm for 3-5 min at 4° C. Supernatant was removed and cells were washed by pre-cold PBS twice. 150 μl PBS was added to suspend the cells and signals were detected by FACS (Beckman, Cytoflex).

Some results are limits rather than exact numbers.

human C5a receptor (C5aR), sequence (P21730 whole entry): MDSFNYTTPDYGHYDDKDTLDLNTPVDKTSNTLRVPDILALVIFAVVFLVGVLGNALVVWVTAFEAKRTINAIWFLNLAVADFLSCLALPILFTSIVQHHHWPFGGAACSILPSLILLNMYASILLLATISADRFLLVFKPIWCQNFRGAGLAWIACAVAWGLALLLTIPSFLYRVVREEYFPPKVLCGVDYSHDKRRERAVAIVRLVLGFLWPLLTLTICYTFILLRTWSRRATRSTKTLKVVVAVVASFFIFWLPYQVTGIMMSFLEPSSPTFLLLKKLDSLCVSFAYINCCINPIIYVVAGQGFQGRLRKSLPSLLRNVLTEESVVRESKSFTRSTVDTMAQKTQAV

For `Cc1cccc(F)c1C(=O)N1C2COC[C@@H]2C[C@H](C(=O)Nc2ccc3c(cnn3C)c2)[C@@H]1c1ccc(NC2CCOCC2)cc1` (relative stereo) [Compound 134, cis-1-(2-fluoro-6-methylbenzoyl)-N-(1-methyl-1H-indazol-5-yl)-2-(4-((tetrahydro-2H-pyran-4-yl)amino)phenyl)octahydrofuro[3,4-b]pyridine-3-carboxamide], the IC50 (commonly the concentration at which inhibition is half-maximal) was in the range of 2000 to 5000 nM.
The figure for `Cc1ccc(NC(=O)C2C[C@@H]3CCC[C@@H]3N(C(=O)c3c(C)cccc3F)C2c2ccc(NC3CCCC3)cc2)cc1C(F)(F)F` (relative stereo) [Compound 155, cis-2-(4-(cyclopentylamino)phenyl)-1-(2-fluoro-6-methylbenzoyl)-N-(4-methyl-3-(trifluoromethyl)phenyl)octahydro-1H-cyclopenta[b]pyridine-3-carboxamide] is 500 to 2000 nM.
To `Cc1ccc(NC(=O)C2CC(O)CN(C(=O)c3c(C)cccc3F)C2c2ccc(NC3CCCC3)cc2)cc1C(F)(F)F` (stereo not shown) [Compound 42, 2-(4-(cyclopentylamino)phenyl)-1-(2-fluoro-6-methylbenzoyl)-5-hydroxy-N-(4-methyl-3-(trifluoromethyl)phenyl)piperidine-3-carboxamide] belongs less than 50 nM; to `Cc1cccc(F)c1C(=O)N1[C@@H]2CCC[C@@H]2C[C@H](C(=O)Nc2ccc3c(cnn3C3COC3)c2)[C@@H]1c1ccc(NC2CCCC2)cc1` [Compound 83, (2R,3S,4aR,7aR)-2-(4-(cyclopentylamino)phenyl)-1-(2-fluoro-6-methylbenzoyl)-N-(1-(oxetan-3-yl)-1H-indazol-5-yl)octahydro-1H-cyclopenta[b]pyridine-3-carboxamide], 2000 to 5000 nM.
As to `Cc1cccc(F)c1C(=O)N1[C@@H]2CCC[C@@H]2C[C@H](C(=O)Nc2ccc3[nH]ncc3c2)[C@@H]1c1ccc(NC2CCCC2)cc1` [Compound 84, (2R,3S,4aR,7aR)-2-(4-(cyclopentylamino)phenyl)-1-(2-fluoro-6-methylbenzoyl)-N-(1H-indazol-5-yl)octahydro-1H-cyclopenta[b]pyridine-3-carboxamide], the IC50 is less than 50 nM.
Regarding `Cc1cccc(F)c1C(=O)N1[C@@H]2CCC[C@@H]2C[C@H](C(=O)Nc2ccc3c(cnn3Cc3ccccn3)c2)[C@@H]1c1ccc(NC2CCOCC2)cc1` [Compound 92, (2R,3S,4aR,7aR)-1-(2-fluoro-6-methylbenzoyl)-N-(1-(pyridin-2-ylmethyl)-1H-indazol-5-yl)-2-(4-((tetrahydro-2H-pyran-4-yl)amino)phenyl)octahydro-1H-cyclopenta[b]pyridine-3-carboxamide], the IC50 is 2000 to 5000 nM.
Compound `Cc1cccc(F)c1C(=O)N1[C@@H]2CCC[C@@H]2C[C@H](C(=O)Nc2ccc3ncccc3c2)[C@@H]1c1ccc(NC2CCOCC2)cc1` [Compound 95, (2R,3S,4aR,7aR)-1-(2-fluoro-6-methylbenzoyl)-N-(quinolin-6-yl)-2-(4-((tetrahydro-2H-pyran-4-yl)amino)phenyl)octahydro-1H-cyclopenta[b]pyridine-3-carboxamide] gave an IC50 of 500 to 2000 nM.
As to `Cc1cccc(F)c1C(=O)N1[C@@H]2CCC[C@@H]2C[C@H](C(=O)Nc2ccc3nn(C)cc3c2)[C@@H]1c1ccc(NC2CCOCC2)cc1` [Compound 97, (2R,3S,4aR,7aR)-1-(2-fluoro-6-methylbenzoyl)-N-(2-methyl-2H-indazol-5-yl)-2-(4-((tetrahydro-2H-pyran-4-yl)amino)phenyl)octahydro-1H-cyclopenta[b]pyridine-3-carboxamide], the IC50 lay within 500 to 2000 nM.
For the compound `Cc1cccc(F)c1C(=O)N1[C@@H]2CCC[C@@H]2C[C@H](C(=O)Nc2ccc3c(cnn3C3COC3)c2)[C@@H]1c1ccc(NC2CCOCC2)cc1` [Compound 99, (2R,3S,4aR,7aR)-1-(2-fluoro-6-methylbenzoyl)-N-(1-(oxetan-3-yl)-1H-indazol-5-yl)-2-(4-((tetrahydro-2H-pyran-4-yl)amino)phenyl)octahydro-1H-cyclopenta[b]pyridine-3-carboxamide], the 50% inhibitory concentration (IC50) was in the range of 2000 to 5000 nM.
The figure for `Cc1cccc(F)c1C(=O)N1[C@@H]2CCC[C@@H]2C[C@H](C(=O)Nc2ccc3c(cnn3CCO)c2)[C@@H]1c1ccc(NC2CCOCC2)cc1` [Compound 102, (2R,3S,4aR,7aR)-1-(2-fluoro-6-methylbenzoyl)-N-(1-(2-hydroxyethyl)-1H-indazol-5-yl)-2-(4-((tetrahydro-2H-pyran-4-yl)amino)phenyl)octahydro-1H-cyclopenta[b]pyridine-3-carboxamide] is 2000 to 5000 nM.
The figure for `Cc1cccc(F)c1C(=O)N1[C@@H]2CCC[C@@H]2C[C@H](C(=O)Nc2ccc3c(cnn3CCN(C)C)c2)[C@@H]1c1ccc(NC2CCOCC2)cc1` [Compound 103, (2R,3S,4aR,7aR)-N-(1-(2-(dimethylamino)ethyl)-1H-indazol-5-yl)-1-(2-fluoro-6-methylbenzoyl)-2-(4-((tetrahydro-2H-pyran-4-yl)amino)phenyl)octahydro-1H-cyclopenta[b]pyridine-3-carboxamide] is 2000 to 5000 nM; for `Cc1cccc(F)c1C(=O)N1[C@@H]2CCC[C@@H]2C[C@H](C(=O)Nc2ccc3nn(CCO)cc3c2)[C@@H]1c1ccc(NC2CCOCC2)cc1` [Compound 104, (2R,3S,4aR,7aR)-1-(2-fluoro-6-methylbenzoyl)-N-(2-(2-hydroxyethyl)-2H-indazol-5-yl)-2-(4-((tetrahydro-2H-pyran-4-yl)amino)phenyl)octahydro-1H-cyclopenta[b]pyridine-3-carboxamide] it is 2000 to 5000 nM; for `Cc1cccc(F)c1C(=O)N1[C@@H]2CCC[C@@H]2C[C@H](C(=O)Nc2ccc3nn(CCN(C)C)cc3c2)[C@@H]1c1ccc(NC2CCOCC2)cc1` [Compound 105, (2R,3S,4aR,7aR)-N-(2-(2-(dimethylamino)ethyl)-2H-indazol-5-yl)-1-(2-fluoro-6-methylbenzoyl)-2-(4-((tetrahydro-2H-pyran-4-yl)amino)phenyl)octahydro-1H-cyclopenta[b]pyridine-3-carboxamide] it is 2000 to 5000 nM.
The figure for `Cc1cccc(F)c1C(=O)N1[C@@H]2CCC[C@@H]2C[C@H](C(=O)Nc2ccc3c(cnn3Cc3cccnc3)c2)[C@@H]1c1ccc(NC2CCOCC2)cc1` [Compound 107, (2R,3S,4aR,7aR)-1-(2-fluoro-6-methylbenzoyl)-N-(1-(pyridin-3-ylmethyl)-1H-indazol-5-yl)-2-(4-((tetrahydro-2H-pyran-4-yl)amino)phenyl)octahydro-1H-cyclopenta[b]pyridine-3-carboxamide] is 2000 to 5000 nM; for `Cc1cccc(F)c1C(=O)N1[C@@H]2CCC[C@@H]2C[C@H](C(=O)Nc2ccc3c(cnn3CCF)c2)[C@@H]1c1ccc(NC2CCOCC2)cc1` [Compound 109, (2R,3S,4aR,7aR)-1-(2-fluoro-6-methylbenzoyl)-N-(1-(2-fluoroethyl)-1H-indazol-5-yl)-2-(4-((tetrahydro-2H-pyran-4-yl)amino)phenyl)octahydro-1H-cyclopenta[b]pyridine-3-carboxamide] it is 500 to 2000 nM.
`Cc1cccc(F)c1C(=O)N1[C@@H]2COC[C@@H]2C[C@H](C(=O)Nc2ccc3cnn(C)c3c2)[C@@H]1c1ccc(NC2CCCC2)cc1` [Compound 122, (2R,3S,4aR,7aS)-2-(4-(cyclopentylamino)phenyl)-1-(2-fluoro-6-methylbenzoyl)-N-(1-methyl-1H-indazol-6-yl)octahydrofuro[3,4-b]pyridine-3-carboxamide]: the half-inhibitory concentration (IC50) fell in the range of 2000 to 5000 nM.
To `Cc1cccc(F)c1C(=O)N1[C@@H]2COC[C@@H]2C[C@H](C(=O)Nc2cnc3cnn(C)c3c2)[C@@H]1c1ccc(NC2CCCC2)cc1` [Compound 123, (2R,3S,4aR,7aS)-2-(4-(cyclopentylamino)phenyl)-1-(2-fluoro-6-methylbenzoyl)-N-(1-methyl-1H-pyrazolo[4,3-b]pyridin-6-yl)octahydrofuro[3,4-b]pyridine-3-carboxamide] belongs 50 to 500 nM; to `Cc1cccc(F)c1C(=O)N1[C@@H]2COC[C@@H]2C[C@H](C(=O)Nc2ccc3c(cnn3C)c2)[C@@H]1c1ccc(CN2CCOCC2(C)C)cc1` [Compound 142, (2R,3S,4aR,7aS)-2-(4-((3,3-dimethylmorpholino)methyl)phenyl)-1-(2-fluoro-6-methylbenzoyl)-N-(1-methyl-1H-indazol-5-yl)octahydrofuro[3,4-b]pyridine-3-carboxamide], 2000 to 5000 nM; to `Cc1ccc(NC(=O)[C@H]2CCCN(C(=O)c3c(C)cccc3F)[C@H]2C2CCC3(CCOC3)CC2)cc1C(F)(F)F` (stereo partly drawn) [Compound 170, (2S,3S)-1-(2-fluoro-6-methylbenzoyl)-N-(4-methyl-3-(trifluoromethyl)phenyl)-2-(2-oxaspiro[4.5]decan-8-yl)piperidine-3-carboxamide], 500 to 2000 nM.
